Laboratory results as given in publication PMC9764288, “Computation-Aided Engineering of Cytochrome P450 for the Production of Pravastatin” (ACS Catalysis, 2022).

Assays:
human CYP3A4 = tested on: human CYP3A4; design: method as in PMID 19530969; settings: cited from earlier work
CYP3A5 = tested on: CYP3A5; design: method as in PMID 19530969; settings: cited from earlier work
CYP105AS1 = biological target: T1, CYP105AS1 (Amycolatopsis orientalis, UniProt W5VH56); assay: UV-vis spectral (type I Soret shift) titration of 3-8 uM purified P450 with compactin from DMSO stocks at 25 °C in 50 mM potassium phosphate, 300 mM KCl, 10% glycerol, pH 8.0; hyperbolic or Morrison tight-binding fit.
T1 construct: N-terminal polyhistidine tag, pBAD vector, expressed in E. coli Top10
T1 sequence (W5VH56 1-401): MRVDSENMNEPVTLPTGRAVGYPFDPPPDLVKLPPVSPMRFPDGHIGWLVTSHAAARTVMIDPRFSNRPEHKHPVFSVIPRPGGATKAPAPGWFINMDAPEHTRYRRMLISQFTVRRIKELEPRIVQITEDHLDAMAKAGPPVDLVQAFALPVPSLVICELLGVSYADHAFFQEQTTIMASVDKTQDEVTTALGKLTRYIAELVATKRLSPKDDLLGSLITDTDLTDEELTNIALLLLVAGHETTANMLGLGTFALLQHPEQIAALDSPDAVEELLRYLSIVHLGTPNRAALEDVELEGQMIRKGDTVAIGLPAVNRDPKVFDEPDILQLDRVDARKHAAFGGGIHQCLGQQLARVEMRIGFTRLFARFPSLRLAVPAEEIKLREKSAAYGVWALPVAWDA
Method: (§1) Absorbance spectra (300–800 nm) of P450 variants were measured on a Cary 60 UV–vis spectrophotometer at 25 °C using 3–8 μM protein in buffer A. The pyridine hemochromogen method was used to quantify CYP105AS1 P450 variant heme concentrations and to determine an extinction coefficient at the heme Soret maximum for each variant.[89] For titration, compactin (0.05–0.5 μL) was added from 5 to 50 mM stock solutions in DMSO. The overall absorbance change (ΔAmax) was calculated as Apeak (absorbance maximum) minus Atrough (absorbance minimum) and plotted against the substrate concentration. Data were fitted according to a standard hyperbolic binding equation or a Morrison equation for tight-binding to determine dissociation constants (Kd).[90],[91]
(§2) UV–vis substrate binding studies were conducted to investigate the effect of mutations on compactin binding. […] Probably, the bulky aromatic side chain of the introduced Phe95 residue influenced the binding of compactin, which allowed elimination of the proximal water ligand and full conversion to the high-spin state upon binding of this substrate.

P450pra = biological target: T2, P450pra (Amycolatopsis orientalis, UniProt W5VH56, I95T/Q127R/A180V/L236I/A265N); format: binding
T2 construct: N-terminal polyhistidine tag, expressed in E. coli; directed evolution variant
T2 sequence (W5VH56 entry or part of it I95T/Q127R/A180V/L236I/A265N): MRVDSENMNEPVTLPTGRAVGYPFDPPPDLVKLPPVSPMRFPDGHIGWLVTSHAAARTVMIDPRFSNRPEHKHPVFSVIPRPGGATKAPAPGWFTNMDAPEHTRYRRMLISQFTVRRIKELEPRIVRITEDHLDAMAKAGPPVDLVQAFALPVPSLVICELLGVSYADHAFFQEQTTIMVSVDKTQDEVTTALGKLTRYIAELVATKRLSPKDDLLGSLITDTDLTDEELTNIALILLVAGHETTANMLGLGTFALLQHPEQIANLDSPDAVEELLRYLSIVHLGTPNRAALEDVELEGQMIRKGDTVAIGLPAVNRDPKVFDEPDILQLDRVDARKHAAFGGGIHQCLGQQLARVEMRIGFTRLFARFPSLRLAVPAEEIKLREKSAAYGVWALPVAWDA
Method: as §1, §2

P450pra + F76N = biological target: T3, P450pra + F76N (Amycolatopsis orientalis, UniProt W5VH56, F76N/I95T/Q127R/A180V/L236I/A265N); format: binding
T3 construct: N-terminal polyhistidine tag, expressed in E. coli
T3 sequence (W5VH56 entry or part of it F76N/I95T/Q127R/A180V/L236I/A265N): as the sequence (W5VH56 entry or part of it I95T/Q127R/A180V/L236I/A265N) above, with F76N counted along it
Method: as §1, §2

P450pra + P80G = biological target: T4, P450pra + P80G (Amycolatopsis orientalis, UniProt W5VH56, P80G/I95T/Q127R/A180V/L236I/A265N); format: binding
T4 construct: N-terminal polyhistidine tag, expressed in E. coli
T4 sequence (W5VH56 entry or part of it P80G/I95T/Q127R/A180V/L236I/A265N): as the sequence (W5VH56 entry or part of it I95T/Q127R/A180V/L236I/A265N) above, with P80G counted along it
Method: as §1, §2

P450pra + T286I = biological target: T5, P450pra + T286I (Amycolatopsis orientalis, UniProt W5VH56, I95T/Q127R/A180V/L236I/A265N/T286I); format: binding
T5 construct: N-terminal polyhistidine tag, expressed in E. coli
T5 sequence (W5VH56 entry or part of it I95T/Q127R/A180V/L236I/A265N/T286I): as the sequence (W5VH56 entry or part of it I95T/Q127R/A180V/L236I/A265N) above, with T286I counted along it
Method: as §1, §2

P450pra + T95F = biological target: T6, P450pra + T95F (Amycolatopsis orientalis, UniProt W5VH56, I95F/Q127R/A180V/L236I/A265N); format: binding
T6 construct: N-terminal polyhistidine tag, expressed in E. coli
T6 sequence (W5VH56 entry or part of it I95F/Q127R/A180V/L236I/A265N): as the sequence (W5VH56 entry or part of it I95T/Q127R/A180V/L236I/A265N) above, with T95F counted along it
Method: as §1, §2

[1] = biological target: T7, P450pra + T95F/V180M (=P450pra100) (Amycolatopsis orientalis, UniProt W5VH56, I95F/Q127R/A180M/L236I/A265N); format: binding
T7 construct: N-terminal polyhistidine tag, expressed in E. coli
T7 sequence (W5VH56 entry or part of it I95F/Q127R/A180M/L236I/A265N): as the sequence (W5VH56 entry or part of it I95T/Q127R/A180V/L236I/A265N) above, with T95F, V180M counted along it
Method: as §1, §2

P450pra + T95W = biological target: T8, P450pra + T95W (Amycolatopsis orientalis, UniProt W5VH56, I95W/Q127R/A180V/L236I/A265N); format: binding
T8 construct: N-terminal polyhistidine tag, expressed in E. coli
T8 sequence (W5VH56 entry or part of it I95W/Q127R/A180V/L236I/A265N): as the sequence (W5VH56 entry or part of it I95T/Q127R/A180V/L236I/A265N) above, with T95W counted along it
Method: as §1, §2

P450pra +V180I = biological target: T9, P450pra +V180I (Amycolatopsis orientalis, UniProt W5VH56, I95T/Q127R/A180I/L236I/A265N); format: binding
T9 construct: N-terminal polyhistidine tag, expressed in E. coli
T9 sequence (W5VH56 entry or part of it I95T/Q127R/A180I/L236I/A265N): as the sequence (W5VH56 entry or part of it I95T/Q127R/A180V/L236I/A265N) above, with V180I counted along it
Method: as §1, §2

P450pra +V180M = biological target: T10, P450pra +V180M (Amycolatopsis orientalis, UniProt W5VH56, I95T/Q127R/A180M/L236I/A265N); format: binding
T10 construct: N-terminal polyhistidine tag, expressed in E. coli
T10 sequence (W5VH56 entry or part of it I95T/Q127R/A180M/L236I/A265N): as the sequence (W5VH56 entry or part of it I95T/Q127R/A180V/L236I/A265N) above, with V180M counted along it
Method: as §1, §2

| Structure (SMILES) | metabolism by human CYP3A4 (human CYP3A4) | metabolism by human CYP3A5 (CYP3A5) | Kd (CYP105AS1) | Kd (P450pra) | Kd (P450pra + F76N) | Kd (P450pra + P80G) | Kd (P450pra + T286I) | Kd (P450pra + T95F) | Kd [1] | Kd (P450pra + T95W) | Kd (P450pra +V180I) | Kd (P450pra +V180M) |
| --- | --- | --- | --- | --- | --- | --- | --- | --- | --- | --- | --- | --- |
| CC[C@H](C)C(=O)O[C@H]1C[C@H](O)C=C2C=C[C@H](C)[C@H](CC[C@@H](O)C[C@@H](O)CC(=O)O)[C@H]21 [pravastatin] | not significantly metabolized | not significantly metabolized | – | – | – | – | – | – | – | – | – | – |
| CC[C@H](C)C(=O)O[C@H]1CCC=C2C=C[C@H](C)[C@H](CC[C@@H]3C[C@@H](O)CC(=O)O3)[C@H]21 [compactin, compactin (mevastatin)] | – | – | 30.3 ± 5.2 µM | 0.77 ± 0.07 µM | 4.81 ± 0.25 µM | 5.84 ± 0.34 µM | 4.93 ± 0.25 µM | 0.25 ± 0.01 µM | 0.13 ± 0.03 µM | 3.29 ± 0.03 µM | 1.64 ± 0.13 µM | 1.34 ± 0.06 µM |
